Data: ChEMBL document CHEMBL5120859, “Optimization of 4-arylthiophene-3-carboxylic acid derivatives as inhibitors of ANO1: Lead optimization studies toward their analgesic efficacy for inflammatory pain” (Eur J Med Chem, 2022)
The source made the active and inactive calls. The calls are words filed in the database; no cut-off is given here.

How the values were obtained:
[1] = target: T1, Anoctamin-2 (Homo sapiens) (UniProt Q9NQ90); assay: Inhibition of human ANO2 expressed in HEK293 cells at 30 uM incubated for 5 mins by whole cell patch clamp electrophysiology relative to control; type: cell-based
T1 sequence (whole entry): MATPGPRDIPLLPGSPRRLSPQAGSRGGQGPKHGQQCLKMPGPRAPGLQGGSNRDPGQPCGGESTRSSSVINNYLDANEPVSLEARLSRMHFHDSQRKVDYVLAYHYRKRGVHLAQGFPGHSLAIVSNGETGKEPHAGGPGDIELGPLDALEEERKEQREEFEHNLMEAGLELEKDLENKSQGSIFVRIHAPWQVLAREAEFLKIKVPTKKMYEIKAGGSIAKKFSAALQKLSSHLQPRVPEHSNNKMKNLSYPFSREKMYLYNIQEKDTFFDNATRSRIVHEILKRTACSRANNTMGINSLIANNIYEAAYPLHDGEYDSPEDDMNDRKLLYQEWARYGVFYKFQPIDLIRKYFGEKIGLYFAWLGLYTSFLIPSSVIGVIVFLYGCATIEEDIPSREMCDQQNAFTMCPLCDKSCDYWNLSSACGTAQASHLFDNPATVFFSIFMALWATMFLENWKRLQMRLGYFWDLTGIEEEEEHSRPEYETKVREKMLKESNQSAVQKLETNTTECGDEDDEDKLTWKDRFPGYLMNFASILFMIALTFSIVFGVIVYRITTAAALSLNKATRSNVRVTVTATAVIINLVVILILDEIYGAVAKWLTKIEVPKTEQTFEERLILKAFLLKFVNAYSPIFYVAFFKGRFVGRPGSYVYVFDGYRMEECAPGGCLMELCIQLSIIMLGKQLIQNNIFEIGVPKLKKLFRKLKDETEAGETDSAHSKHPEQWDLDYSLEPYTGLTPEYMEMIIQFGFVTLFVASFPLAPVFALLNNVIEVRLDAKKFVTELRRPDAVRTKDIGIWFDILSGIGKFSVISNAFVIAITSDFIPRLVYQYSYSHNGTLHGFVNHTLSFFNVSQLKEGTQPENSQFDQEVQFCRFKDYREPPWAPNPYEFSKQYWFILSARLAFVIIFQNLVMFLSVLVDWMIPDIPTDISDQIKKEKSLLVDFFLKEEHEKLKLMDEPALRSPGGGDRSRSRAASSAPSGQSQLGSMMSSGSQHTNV

[2] = target: Sodium channel protein type 7 subunit alpha (Homo sapiens) (UniProt Q01118); assay: Inhibition of Nav1.7 (unknown origin) in resting condition at 30 uM by whole cell patch clamp electrophysiology relative to control
[3] = target: Voltage-dependent N-type calcium channel subunit alpha-1B (Homo sapiens) (UniProt Q00975); assay: Inhibition of Cav2.2 (unknown origin) at a holding potential +10 mV at 30 uM by whole cell patch clamp electrophysiology relative to control
[4] = target: Transient receptor potential cation channel subfamily V member 1 (Homo sapiens) (UniProt Q8NER1); assay: Inhibition of TRPV1 (unknown origin) at a holding potential +100 mV at 30 uM by whole cell patch clamp electrophysiology relative to control
[5] = Tmax in C57BL/6 mouse at 40 mg/kg,iv measured upto 24 hrs by HPLC-MS/MS analysis; type: ADME, organism-based; details: in vivo
[6] = AUC (0 to t) in C57BL/6 mouse at 40 mg/kg,iv measured upto 24 hrs by HPLC-MS/MS analysis; type: ADME, organism-based; design: dose 40 mg/kg, time < 24 hrs, route iv; details: in vivo
[7] = AUC (0 to t) in C57BL/6 mouse at 80 mg/kg,IG measured upto 24 hrs by HPLC-MS/MS analysis; type: ADME, organism-based; design: dose 80 mg/kg, time < 24 hrs, route ig; details: in vivo, po
[8] = MRT (0 to t) in C57BL/6 mouse at 80 mg/kg,IG measured upto 24 hrs by HPLC-MS/MS analysis; type: ADME, organism-based; details: in vivo, po
[9] = Volume of distribution at steady state in C57BL/6 mouse at 40 mg/kg,iv measured upto 24 hrs by HPLC-MS/MS analysis; type: ADME, organism-based; details: in vivo, read-out: Vdss
[10] = Clearance in C57BL/6 mouse at 40 mg/kg,iv measured upto 24 hrs by HPLC-MS/MS analysis; type: ADME, organism-based; details: in vivo
[11] = Bioavailability in C57BL/6 mouse at 40 mg/kg,IG measured upto 24 hrs by HPLC-MS/MS analysis; type: ADME, organism-based; details: in vivo, po
[12] = Brain concentration in C57BL/6 mouse at 40 mg/kg,IG measured after 0.25 hrs by HPLC analysis; type: ADME, organism-based; details: po, read-out: Ct
[13] = Brain concentration in C57BL/6 mouse at 40 mg/kg,IG measured after 24 hrs by HPLC analysis; type: ADME, organism-based; details: po, read-out: Ct
[14] = Ratio of drug concentration in brain to plasma in C57BL/6 mouse at 40 mg/kg,IG measured after 0.25 hrs by HPLC analysis; type: ADME, organism-based; details: po
[15] = Ratio of drug concentration in brain to plasma in C57BL/6 mouse at 40 mg/kg,IG measured after 24 hrs by HPLC analysis; type: ADME, organism-based; details: po
[16] = Cytotoxicity against human HEK293 cells assessed as inhibition of cell growth at 30 uM incubated for 72 hrs by CCK-8 assay; type: toxicity, cell-based
[17] = Acute toxicity in C57BL/6 mouse assessed as animal survival at 1000 mg/kg,po measured after 24 hrs; type: organism-based; details: in vivo
[18] = Acute toxicity in C57BL/6 mouse assessed as toxic symptoms at 1000 mg/kg,po measured after 24 hrs; type: organism-based; details: in vivo
Mus musculus [19] = assay: Analgesic activity in C57BL/6 mouse model of formalin-induced allodynia assessed as reduction on foot licking pain response at 40 to 80 mg/kg,po measured after 10 mins; type: functional, organism-based; details: dose 40-80 mg/kg
Mus musculus [20] = assay: Analgesic activity in C57BL/6 mouse model of formalin-induced allodynia assessed as reduction on foot licking pain response at 40 to 80 mg/kg,po measured at 15 to 60 mins; type: functional, organism-based; details: dose 40-80 mg/kg, time 15-60 min, DDE = dose-dependent effect
Mus musculus [21] = assay: Analgesic activity in C57BL/6 mouse model of CFA-induced mechanical hyperalgesia assessed as […] at 40 to 80 mg/kg,po measured after 12 hrs by Von Frey test; type: functional, organism-based; details: dose 40-80 mg/kg
Mus musculus [22] = assay: Analgesic activity in C57BL/6 mouse model of CFA-induced mechanical hyperalgesia assessed as […] at 40 to 80 mg/kg,po measured after 7 days by Von Frey test; type: functional, organism-based; details: dose 40-80 mg/kg, time 7.0 day
Mus musculus [23] = assay: Analgesic activity in C57BL/6 mouse model of capsaicin-induced allodynia assessed as reduction on foot licking pain response at 80 mg/kg,po measured after 5 mins; type: functional, organism-based
[24] = Toxicity in C57BL/6 mouse model of capsaicin-induced allodynia assessed as increase in body temperature at 40 to 80 mg/kg,po; type: organism-based; details: in vivo, dose 40-80 mg/kg
Anoctamin-2 = target: T2, Anoctamin-2 (Homo sapiens, UniProt Q9NQ90); assay: Inhibition of human ANO2 expressed in HEK293 cells incubated for 5 mins by whole cell patch clamp electrophysiology; type: cell-based
T2 sequence (Q9NQ90 whole entry): T1 sequence (whole entry)

Sequence of Transient receptor potential cation channel subfamily V member 1 (Homo sapiens) (Q8NER1 whole entry): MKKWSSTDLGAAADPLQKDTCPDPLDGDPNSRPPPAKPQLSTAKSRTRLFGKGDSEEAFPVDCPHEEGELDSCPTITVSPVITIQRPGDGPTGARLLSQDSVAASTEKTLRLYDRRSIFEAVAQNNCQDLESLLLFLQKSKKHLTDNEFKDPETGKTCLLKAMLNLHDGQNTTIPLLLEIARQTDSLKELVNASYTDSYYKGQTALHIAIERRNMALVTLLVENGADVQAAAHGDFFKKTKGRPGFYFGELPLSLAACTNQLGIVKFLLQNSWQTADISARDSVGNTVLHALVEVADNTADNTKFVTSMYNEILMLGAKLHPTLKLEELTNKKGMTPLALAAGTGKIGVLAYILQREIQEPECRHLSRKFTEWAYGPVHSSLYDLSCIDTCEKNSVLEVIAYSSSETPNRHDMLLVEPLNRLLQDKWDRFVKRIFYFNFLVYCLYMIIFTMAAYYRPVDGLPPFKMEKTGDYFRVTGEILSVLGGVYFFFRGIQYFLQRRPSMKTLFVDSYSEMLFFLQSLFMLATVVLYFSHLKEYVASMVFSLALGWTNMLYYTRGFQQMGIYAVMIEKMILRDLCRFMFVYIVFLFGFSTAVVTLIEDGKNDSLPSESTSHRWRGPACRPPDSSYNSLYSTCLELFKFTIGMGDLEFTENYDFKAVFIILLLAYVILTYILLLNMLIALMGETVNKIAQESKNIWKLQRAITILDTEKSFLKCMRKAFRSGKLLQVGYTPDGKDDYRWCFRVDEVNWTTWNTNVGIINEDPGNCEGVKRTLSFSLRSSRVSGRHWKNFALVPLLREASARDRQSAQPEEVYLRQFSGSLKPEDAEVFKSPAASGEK
Sequence of Voltage-dependent N-type calcium channel subunit alpha-1B (Homo sapiens) (Q00975 whole entry, looked up): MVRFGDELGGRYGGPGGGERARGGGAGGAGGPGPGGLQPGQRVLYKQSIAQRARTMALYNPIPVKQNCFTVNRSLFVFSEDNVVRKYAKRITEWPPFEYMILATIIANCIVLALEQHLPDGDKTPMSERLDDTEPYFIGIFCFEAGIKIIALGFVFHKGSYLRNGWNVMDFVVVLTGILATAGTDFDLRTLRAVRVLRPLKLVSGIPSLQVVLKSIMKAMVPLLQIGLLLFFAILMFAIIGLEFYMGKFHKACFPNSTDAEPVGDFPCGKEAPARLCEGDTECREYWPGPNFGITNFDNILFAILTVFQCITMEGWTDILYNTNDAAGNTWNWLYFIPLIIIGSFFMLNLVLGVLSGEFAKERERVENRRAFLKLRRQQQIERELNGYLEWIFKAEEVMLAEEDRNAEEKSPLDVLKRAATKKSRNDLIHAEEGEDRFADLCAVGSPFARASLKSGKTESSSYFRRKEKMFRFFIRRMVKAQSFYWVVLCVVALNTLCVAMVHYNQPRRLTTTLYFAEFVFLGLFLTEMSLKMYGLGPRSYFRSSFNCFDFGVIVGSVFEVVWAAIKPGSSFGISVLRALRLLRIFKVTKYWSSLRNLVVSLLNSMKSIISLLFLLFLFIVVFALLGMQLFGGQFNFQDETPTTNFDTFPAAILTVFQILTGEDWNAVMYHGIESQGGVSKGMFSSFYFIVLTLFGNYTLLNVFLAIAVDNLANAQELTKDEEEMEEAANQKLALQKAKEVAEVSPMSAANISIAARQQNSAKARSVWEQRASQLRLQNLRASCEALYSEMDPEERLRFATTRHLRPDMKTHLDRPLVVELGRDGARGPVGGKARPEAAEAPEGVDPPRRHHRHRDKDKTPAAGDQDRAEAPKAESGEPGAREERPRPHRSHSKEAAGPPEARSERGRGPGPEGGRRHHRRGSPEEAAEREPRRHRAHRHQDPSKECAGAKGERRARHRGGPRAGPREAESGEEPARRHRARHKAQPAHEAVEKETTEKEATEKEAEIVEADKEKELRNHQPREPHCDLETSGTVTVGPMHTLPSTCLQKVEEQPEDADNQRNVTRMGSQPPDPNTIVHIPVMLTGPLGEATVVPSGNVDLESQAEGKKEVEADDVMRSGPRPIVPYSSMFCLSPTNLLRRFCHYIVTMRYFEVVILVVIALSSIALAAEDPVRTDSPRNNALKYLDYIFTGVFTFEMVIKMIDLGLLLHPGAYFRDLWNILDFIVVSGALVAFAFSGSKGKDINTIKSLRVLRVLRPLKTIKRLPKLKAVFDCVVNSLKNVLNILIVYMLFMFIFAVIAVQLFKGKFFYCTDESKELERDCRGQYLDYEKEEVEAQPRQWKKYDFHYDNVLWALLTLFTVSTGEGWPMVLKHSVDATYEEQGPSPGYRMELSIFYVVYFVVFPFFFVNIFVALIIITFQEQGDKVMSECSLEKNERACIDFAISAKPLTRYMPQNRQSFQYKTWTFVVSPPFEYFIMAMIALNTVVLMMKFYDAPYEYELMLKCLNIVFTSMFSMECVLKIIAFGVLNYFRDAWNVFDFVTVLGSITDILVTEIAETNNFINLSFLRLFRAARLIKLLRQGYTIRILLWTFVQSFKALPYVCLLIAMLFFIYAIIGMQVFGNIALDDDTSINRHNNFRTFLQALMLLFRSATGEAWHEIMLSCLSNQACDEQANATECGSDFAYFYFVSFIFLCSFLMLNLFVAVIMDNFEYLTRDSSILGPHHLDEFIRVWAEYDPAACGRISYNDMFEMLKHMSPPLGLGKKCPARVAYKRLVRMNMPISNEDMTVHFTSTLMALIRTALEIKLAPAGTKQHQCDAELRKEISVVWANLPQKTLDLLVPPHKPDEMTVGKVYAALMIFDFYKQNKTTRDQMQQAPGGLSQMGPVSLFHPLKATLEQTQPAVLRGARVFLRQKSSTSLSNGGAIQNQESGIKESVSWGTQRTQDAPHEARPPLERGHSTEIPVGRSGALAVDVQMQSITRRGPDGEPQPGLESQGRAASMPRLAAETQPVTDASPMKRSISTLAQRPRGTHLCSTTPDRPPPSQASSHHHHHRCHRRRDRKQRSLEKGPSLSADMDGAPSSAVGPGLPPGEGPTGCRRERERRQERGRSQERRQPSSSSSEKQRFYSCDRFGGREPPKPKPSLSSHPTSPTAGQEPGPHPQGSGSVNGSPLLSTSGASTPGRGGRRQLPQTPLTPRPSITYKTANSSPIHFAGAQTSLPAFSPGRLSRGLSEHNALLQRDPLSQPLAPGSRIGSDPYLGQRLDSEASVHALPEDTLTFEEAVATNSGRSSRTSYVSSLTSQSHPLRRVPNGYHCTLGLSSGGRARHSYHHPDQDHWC
Sequence of Sodium channel protein type 7 subunit alpha (Homo sapiens) (Q01118 whole entry): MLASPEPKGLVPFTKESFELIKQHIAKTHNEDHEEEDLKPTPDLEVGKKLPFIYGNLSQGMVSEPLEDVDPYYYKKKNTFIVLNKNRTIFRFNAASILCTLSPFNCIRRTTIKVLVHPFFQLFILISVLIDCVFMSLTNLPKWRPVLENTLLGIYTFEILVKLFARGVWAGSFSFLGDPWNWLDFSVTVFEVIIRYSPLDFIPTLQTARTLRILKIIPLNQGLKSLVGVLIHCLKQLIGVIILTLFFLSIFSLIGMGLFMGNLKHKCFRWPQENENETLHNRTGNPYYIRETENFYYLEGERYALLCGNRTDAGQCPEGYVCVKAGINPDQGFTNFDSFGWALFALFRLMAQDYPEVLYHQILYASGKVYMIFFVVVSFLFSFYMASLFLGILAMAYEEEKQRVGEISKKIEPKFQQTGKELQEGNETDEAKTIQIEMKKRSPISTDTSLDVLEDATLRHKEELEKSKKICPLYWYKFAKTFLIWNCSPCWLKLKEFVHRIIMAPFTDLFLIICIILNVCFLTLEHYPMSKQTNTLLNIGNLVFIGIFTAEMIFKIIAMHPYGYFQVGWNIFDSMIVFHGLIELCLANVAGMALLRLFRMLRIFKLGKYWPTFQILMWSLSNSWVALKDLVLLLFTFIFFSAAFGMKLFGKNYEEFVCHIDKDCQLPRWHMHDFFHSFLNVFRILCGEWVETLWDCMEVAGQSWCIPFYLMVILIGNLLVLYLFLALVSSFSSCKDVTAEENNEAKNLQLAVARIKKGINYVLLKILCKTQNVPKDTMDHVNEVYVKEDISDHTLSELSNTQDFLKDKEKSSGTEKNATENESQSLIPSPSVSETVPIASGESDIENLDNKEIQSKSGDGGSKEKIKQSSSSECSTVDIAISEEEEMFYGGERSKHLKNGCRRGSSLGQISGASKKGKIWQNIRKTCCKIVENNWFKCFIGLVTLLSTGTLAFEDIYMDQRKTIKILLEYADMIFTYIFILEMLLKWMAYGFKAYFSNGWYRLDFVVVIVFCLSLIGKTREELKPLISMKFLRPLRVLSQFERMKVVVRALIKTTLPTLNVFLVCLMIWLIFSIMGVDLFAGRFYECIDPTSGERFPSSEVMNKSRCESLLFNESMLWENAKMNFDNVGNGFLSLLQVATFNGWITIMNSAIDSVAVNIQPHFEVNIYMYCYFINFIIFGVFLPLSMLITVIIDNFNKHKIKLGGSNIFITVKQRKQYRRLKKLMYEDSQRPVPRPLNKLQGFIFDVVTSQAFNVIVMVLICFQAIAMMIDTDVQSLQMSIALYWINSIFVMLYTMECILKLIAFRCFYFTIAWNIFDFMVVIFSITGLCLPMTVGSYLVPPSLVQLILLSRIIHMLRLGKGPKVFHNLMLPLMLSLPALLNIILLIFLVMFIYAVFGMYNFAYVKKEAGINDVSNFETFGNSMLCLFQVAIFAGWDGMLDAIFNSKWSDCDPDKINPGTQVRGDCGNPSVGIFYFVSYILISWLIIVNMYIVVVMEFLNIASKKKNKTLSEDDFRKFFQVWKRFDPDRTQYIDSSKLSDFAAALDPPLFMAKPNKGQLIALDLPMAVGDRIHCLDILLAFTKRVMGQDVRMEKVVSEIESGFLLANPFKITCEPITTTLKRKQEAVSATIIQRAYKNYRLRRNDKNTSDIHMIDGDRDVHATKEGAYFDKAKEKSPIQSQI

Which results are given for `O=C(Nc1scc(-c2ccc(Cl)cc2)c1C(=O)O)c1cc(F)ccc1F`?
inhibition [1]: 72.8%; inhibition [2]: 4.4%; inhibition [3]: 32%; inhibition [4]: 17%; Tmax [5]: 4.8 min; AUC(0-t) at 24 h [6]: 350 µg·h/mL; AUC(0-t) at 24 h [7]: 596 µg·h/mL; MRT last at 24 h [8]: 7.6 h; Vd [9]: 0.8 L/kg; clearance [10]: 1.73 mL/min/kg; bioavailability [11]: 75.7%; concentration at 0.25 h [12]: 1440 ng/g; concentration at 24 h [13]: 74.8 ng/g; Ratio [14]: 1.5%; Ratio [15]: 4.5%; inhibition at 72 h, 30 µM [16]: < 10%; Activity [17]: Non-Toxic; Activity [18]: Non-Toxic; Activity (Mus musculus [19]): Active; Activity (Mus musculus [20]): Dde; Activity (Mus musculus [21]): Active; Activity (Mus musculus [22]): Active; Activity (Mus musculus [23]): Active; Activity [24]: Non-Toxic; IC50 (Anoctamin-2): 8.7 µM
